The record followed here is US20230014907A1, “INHIBITORS OF APOL1 AND METHODS OF USING SAME” (Vertex Pharmaceuticals Incorporated, priority 2020, published 2023).

As usually defined, the IC50 is the midpoint of a concentration-inhibition curve.

The target in this test is T1, G1 APOL1 (Homo sapiens, UniProt O14791, I384M/S342G).
T1 construct: expressed in transfected cells
T1 sequence (O14791 28-398 S342G/I384M): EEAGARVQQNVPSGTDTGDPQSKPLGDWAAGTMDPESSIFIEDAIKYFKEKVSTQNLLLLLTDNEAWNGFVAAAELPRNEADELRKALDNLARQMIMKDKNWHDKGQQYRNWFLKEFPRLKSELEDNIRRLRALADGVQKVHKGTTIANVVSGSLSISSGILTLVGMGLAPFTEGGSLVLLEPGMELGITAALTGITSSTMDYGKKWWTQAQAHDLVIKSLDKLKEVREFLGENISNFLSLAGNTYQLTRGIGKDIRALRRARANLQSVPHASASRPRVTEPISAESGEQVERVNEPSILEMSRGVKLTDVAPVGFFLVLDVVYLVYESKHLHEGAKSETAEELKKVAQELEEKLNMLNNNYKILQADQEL
The test is described as follows: Acute APOL1 Thallium Assay with Inducible Stable Clones of HEK 293 Cells. It counts as cell-based. The note with it: HEK 293 inducible stable clones, G1 APOL1; read-out: Thallium Assay (IC50). An outline of the steps:
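HEK293 T-Rex cells with a stable tetracycline-inducible G1 APOL1 construct (clone DC3.25) were induced with tetracycline at plating, 26000 cells per well, then incubated at 37° C. They were loaded with an AM-ester thallium-sensitive dye and stimulated with Tl+. The fluorescence rise measured Tl+ influx through APOL1 pores.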
Regarding `O=C1NCC(C(=O)NCCc2c(-c3ccc(F)cc3)[nH]c3c(F)cc(F)cc23)O1` (stereo not drawn) [Compound 337], the IC50 is greater than 1 µM. Next, `NCC(=O)NCCc1c(-c2ccc(F)cc2)[nH]c2c(F)cc(F)cc12` [Compound 366]: 0.25 to 1 µM; `O=C(CCCc1c(-c2ccc(F)cc2)[nH]c2c(F)cc(F)cc12)N[C@H]1C[C@@H](CO)NC1=O` [Compound 256]: greater than 1 µM. Next, `CN1CC(NC(=O)NCCc2c(-c3ccc(F)cc3)[nH]c3c(F)cc(F)cc23)CC1=O` (stereo not drawn) [Compound 294]: greater than 1 µM; `O=C(Cn1cncn1)NCCc1c(-c2ccc(F)cc2)[nH]c2c(F)cc(F)cc12` [Compound 386]: greater than 1 µM; `CC[C@@H](CO)NC(=O)OCCc1c(-c2ccc(F)cc2)[nH]c2c(F)cc(F)cc12` [Compound 446]: less than 0.25 µM. The same measure for `O=C(NCCc1c(-c2ccc(F)cc2)[nH]c2c(F)cc(F)cc12)OCC1(C(=O)O)CC1` [Compound 426, 1-[2-[5,7-difluoro-2-(4-fluorophenyl)-1H-indol-3-yl]ethylcarbamoyloxymethyl]cyclopropanecarboxylic acid]: greater than 1 µM. Consider `CC1(CNC(=O)NCCc2c(-c3ccc(F)cc3)[nH]c3c(F)cc(F)cc23)COC1` [Compound 298], for which the IC50 is greater than 1 µM. Next, `O=C1CNC(=O)N1CCc1c(-c2ccc(F)cc2)[nH]c2c(F)cc(F)cc12` [Compound 258, 3-[2-[5,7-difluoro-2-(4-fluorophenyl)-1H-indol-3-yl]ethyl]imidazolidine-2,4-dione]: greater than 1 µM; `C[C@@H]1NC(=O)N(CCc2c(-c3ccc(F)cc3)[nH]c3c(F)cc(F)cc23)C1=O` [Compound 257, (5S)-3-[2-[5,7-difluoro-2-(4-fluorophenyl)-1H-indol-3-yl]ethyl]-5-methyl-imidazolidine-2,4-dione]: greater than 1 µM. For `O=C(NCCc1c(-c2ccc(F)cc2)[nH]c2c(F)cc(F)cc12)c1cncs1` [Compound 384], the IC50 is greater than 1 µM. `O=C(NCCc1c(-c2ccc(F)cc2)[nH]c2c(F)cc(F)cc12)C1COC1` [Compound 413]: the IC50 was greater than 1 µM. With `COC(=O)/C=C/c1c(-c2ccc(C#N)cc2)[nH]c2c(F)cc(F)cc12` [Compound 521, Methyl (E)-3-[2-(4-cyanophenyl)-5,7-difluoro-1H-indol-3-yl]prop-2-enoate], the IC50 was greater than 1 µM. The same measure for `CNC(=O)CCCc1c(-c2ccc(F)cc2)[nH]c2c(F)cc(F)cc12` [Compound 239, 4-(5,7-difluoro-2-(4-fluorophenyl)-1H-indol-3-yl)-N-methylbutanamide]: 0.25 to 1 µM; for `NC(=O)CNC(=O)CCCc1c(-c2ccc(F)cc2)[nH]c2c(F)cc(F)cc12` [Compound 246]: greater than 1 µM. Next, `O=C(NCCc1c(-c2ccc(F)cc2)[nH]c2c(F)cc(F)cc12)c1ccnc(C(F)(F)F)c1` [Compound 369]: greater than 1 µM. For the compound `O=C(N[C@H]1C[C@H](O)C1)OCCc1c(-c2ccc(F)cc2)[nH]c2c(F)cc(F)cc12` [Compound 464], the IC50 was in the range of 0.25 to 1 µM. Next, `O=C(NCCc1c(-c2ccc(F)cc2)[nH]c2c(F)cc(F)cc12)NCc1ccoc1` [Compound 299]: greater than 1 µM.

Turning to `NC(=O)CNC(=O)OCCc1c(-c2ccc(F)cc2)[nH]c2c(F)cc(F)cc12` [Compound 452], the IC50 was less than 0.25 µM. The same measure for `CC(C)[C@@H](CO)NC(=O)OCCc1c(-c2ccc(F)cc2)[nH]c2c(F)cc(F)cc12` [Compound 459]: 0.25 to 1 µM; for `O=C(NCC1(O)CCS(=O)(=O)C1)OCCc1c(-c2ccc(F)cc2)[nH]c2c(F)cc(F)cc12` (stereo not drawn) [Compound 498]: greater than 1 µM; for `O=C(CCCc1c(-c2ccc(F)cc2)[nH]c2c(F)cc(F)cc12)N[C@@H]1CCNC1=O` [Compound 247]: greater than 1 µM. Next, `O=C(NCCc1c(-c2ccc(F)cc2)[nH]c2c(F)cc(F)cc12)[C@H]1CCOC1` [Compound 407]: greater than 1 µM. Next, `CC(CC(N)=O)NC(=O)NCCc1c(-c2ccc(F)cc2)[nH]c2c(F)cc(F)cc12` (racemic) [Compound 271]: 0.25 to 1 µM.
